In data set [1] the test system is hereditary angioedema (HAE). Particulars: HAE patients; cited from earlier work.
For data set [2], the system named is lipopolysaccharide (LPS)- or bacterial-induced sepsis. Particulars: LPS- or bacterial-induced sepsis in animals; cited from earlier work.
A short description of data set [3]: Phase I multiple ascending oral dose pharmacokinetics in healthy subjects (plasma, LC-MS/MS). The settings on record: for Ctau (trough plasma concentration at end of dosing interval) / Cmax / AUC / Tmax: healthy subjects; for Ctau (trough plasma concentration at end of dosing interval) / Cmax / AUC: geometric mean; for Cmax / AUC / Tmax: human, plasma, po; for Tmax: median. It counts as in vivo, human. On the procedure:
As part of a Phase I, double-blind, placebo-controlled dose-ranging study, the pharmacokinetics of multiple ascending oral doses of Compound I·2 (HCl) were evaluated in healthy subjects. Four ascending dose cohorts were enrolled for dosing in a sequential manner. At the start, twelve subjects were randomized into each cohort for administration of a 7-day or 14-day course of study drug (n=10/cohort received Compound I·2 (HCl) and n=2/cohort received matching placebo) according to the following dose regimens: 125 mg Compound I·2 (HCl) or placebo once per day (QD) for 7 days in Cohort 1; 250 mg Compound I·2 (HCl) or placebo QD for 7 days in Cohort 2; 500 mg Compound I·2 (HCl) or placebo QD for 7 days in Cohort 3; […] Overall, 37 out of the 40 subjects receiving multiple doses of Compound I·2 (HCl) completed their respective dose regimens and were available for assessment of PK parameters at either Day 7 or Day 14.
Serial blood samples were drawn for pharmacokinetic analysis before dose administration on Day 7 or Day 14, and over the following 24 hours. The plasma samples for determination of Compound I·2 (HCl) concentrations were analyzed with the use of a validated LC-MS/MS (Liquid Chromatography with tandem mass spectrometry) bioanalytical assay.
Plasma Compound I·2 (HCl) concentration versus time profiles on Day 7 after QD oral administration of Compound I·2 (HCl) at 125, 250, and 500 mg QD, and on Day 14 after QD oral administration of Compound I·2 (HCl) at 350 mg QD, are shown in FIG. 3.
Table 1 provides a summary of plasma pharmacokinetic parameters [the maximum (peak) plasma drug concentration (Cmax), time (observed time point) to reach maximum (peak) plasma drug concentration following drug administration (Tmax), the observed trough plasma concentration at the end of the dosing interval (Ctau), and the area under the plasma concentration-time curve over the dosing interval (AUCtau)] following 7 or 14 days of multiple oral doses of Compound I·2 (HCl).

The next data set has as its system arthritis. Particulars: rat models of arthritis; cited from earlier work.
The subject of data set [4] is middle cerebral artery occlusion (MCAO). The settings on record: mouse MCAO model; cited from earlier work.
A further data set has as its system sepsis. Particulars: cited from earlier work.
Where [5] appears, read: across the full 4-fold dose range (125 mg to 500 mg QD).
Setting [6] is: 125 mg, 125 mg QD oral, Day 7 (N = 10).
The mark [7] stands for this setting: 350 mg, 350 mg QD oral, Day 14 (N = 9).
The mark [8] stands for this setting: 350 mg, third dose column, 350 mg QD, Day 7 (N = 9), oral.
Where [9] appears, read: 500 mg, second dose column, 500 mg QD, Day 7 (N = 9), oral.

Structures can show the parent of a compound that is named as a salt.

A word on the Cmax: it is the highest concentration seen after dosing. The AUC is concentration integrated over time. Low readings indicate low exposure, high ones high exposure. The term Tmax denotes the time at which the peak concentration occurs.

`NC(N)=NCCC[C@@H](N)C(=O)N[C@@H](CCCN=C(N)N)C(=O)N1CCC[C@H]1C(=O)N1C[C@H](O)C[C@H]1C(=O)NCC(=O)N[C@@H](Cc1cccs1)C(=O)N[C@@H](CO)C(=O)N1Cc2ccccc2C[C@@H]1C(=O)N1[C@H](C(=O)N[C@@H](CCCN=C(N)N)C(=O)O)C[C@@H]2CCCC[C@@H]21` [Icatibant]: the “Efficacy in treating HAE” value in data set [1] was “effective in treating HAE”.

On to “H-D-Pro-Phe-Arg-chloromethylketone [H-D-Pro-Phe-Arg-chloromethylketone (CMK), reference compound]”, for which the “Vascular permeability in multiple organs and lesions” value in data set [2] was “reduce vascular permeability in multiple organs and reduce lesions”.

For `N#Cc1cccc([C@@H](NCC2CC2)c2ccc(F)c(NC(=O)c3cc(C(F)(F)F)nn3-c3cccc(CN)c3)c2)c1` [Compound I•2(HCl)], the “Ctau (trough plasma concentration at end of dosing interval)” value in data set [3] (125 mg QD oral, Day 7 (N = 10)) is recorded as 46.1 ng/mL; in data set [3] (second dose column, 500 mg QD, Day 7 (N = 9), oral), 101 ng/mL. The “Increase in geometric mean AUCtau” value in data set [3] (setting [5]) worked out at 5.1 fold. For the same molecule, in data set [3] (setting [5]), the “Increase in geometric mean Cmax” value is 5.3 fold. In addition, the maximum concentration (Cmax) in data set [3] (setting [6]) was determined as 97.8 ng/mL; in data set [3] (setting [7]) it was 363 ng/mL; in data set [3] (setting [8]), 517 ng/mL; in data set [3] (setting [9]), 217 ng/mL. Also, the AUC in data set [3] (setting [6]) turned out to be 1600 ng·h/mL; in data set [3] (setting [7]), 5720 ng·h/mL; in data set [3] (setting [8]), 8230 ng·h/mL; in data set [3] (setting [9]), 3710 ng·h/mL. Besides, the values for the time to peak (Tmax) in data set [3] (setting [6]) and in data set [3] (setting [9]) were 5 h and 6 h, respectively. For the same molecule, the “Dose proportionality of exposure” value in data set [3] (increase from 125 mg to 250 mg QD and 250 mg to 500 mg QD) is on record as “reasonable dose proportionality”.

With `Cl.NCC1CCC(C(=O)N[C@@H](Cc2ccccc2)C(=O)Nc2ccc(CC(=O)O)cc2)CC1` (stereo partly drawn) [PKSI-527], the Joint swelling entry in the data set on arthritis was “reduce joint swelling”.

B1: C1-inhibitor: physiological inhibitor of kallikrein in human plasma (protein, UniProt P05155 23-500, looked up)
Plasma protease C1 inhibitor: NPNATSSSSQDPESLQDRGEGKVATTVISKMLFVEPILEVSSLPTTNSTTNSATKITANTTDEPTTQPTTEPTTQPTIQPTQPTTQLPTDSPTQPTTGSFCPGPVTLCSDLESHSTEAVLGDALVDFSLKLYHAFSAMKKVETNMAFSPFSIASLLTQVLLGAGENTKTNLESILSYPKDFTCVHQALKGFTTKGVTSVSQIFHSPDLAIRDTFVNASRTLYSSSPRVLSNNSDANLELINTWVAKNTNNKISRLLDSLPSDTRLVLLNAIYLSAKWKTTFDPKKTRMEPFHFKNSVIKVPMMNSKKYPVAHFIDQTLKAKVGQLQLSHNLSLVILVPQNLKHRLEDMEQALSPSVFKAIMEKLEMSKFQPTLLTLPRIKVTTSQDMLSIMEKLEFFDFSYDLNLCGLTEDPDLQVSAMQHQTVLELTETGVEAAAASAISVARTLLVFEVQQPFLFVLWDQQHKFPVFMGRVYDPRA
In the case of B1, in data set [4], the Infarct size entry is on record as “reduced infarct size”. Besides, in data set [2], the “Vascular permeability in multiple organs and lesions” value is “reduce vascular permeability in multiple organs and reduce lesions”. Further, in the data set on sepsis, the “Clinical outcome in sepsis patients” value is recorded as “Clinical improvement”.

The values above are taken from patent US12590069B2, “Crystalline salts of a plasma kallikrein inhibitor” (BioCryst Pharmaceuticals, Inc., priority 2018, dated 2026).
